Tested on: Escherichia coli (DSM 1576)
Assay: Antibacterial activity of haloperoxidase, hydrogen peroxide and a buffer compound against Escherichia coli cells (conductance measurement, Malthus)
Type: cell-based
Settings: for Log CFU/ml (reduction in number of living bacterial cells): buffer 50 mM, 40° C., 20 minutes, approx. 10^6 CFU/ml; for bactericidal activity: carboxylic acid as buffer with haloperoxidase and hydrogen peroxide (Table 1), log CFU/ml reduction of more than 6 units corresponds to 100%
Protocol: Antimicrobial activity may be measured in terms of the number of log reductions. The term “log reduction” is defined as a logarithmic reduction of the number of living cells, e.g. 1 log reduction corresponds to a reduction in living cell number of Escherichia coli DSM1576 or Enterococcus faecalis DSM2570 from Y×10^X CFU/M (CFU: […] The number of living bacteria are to be determined as the number of E. coli or E. faecalis, respectively, which can grow on Tryptone Soya Agar plates at 30° C. The antibacterial activity of a system composed of a haloperoxidase and hydrogen peroxide were tested in a variety of buffers (including both carboxylic acids and other buffer compounds) and pH against Escherichia coli (DSM 1576). The E. coli cells were grown in Brain Heart Infusion broth (BHI) until stationary growth phase (30° C., 20 hours). […] Subsequently the solution was incubated in a 96-well MicroWell plate (Nunc A/S, Denmark) at 40° C. in 20 minutes. […] The detection times measured by the Malthus instrument were converted to CFU/ml by a calibration curve.

[1] = pH 7, rCvP 0.1 mg/L, H2O2 0.25 mM
[2] = pH 5, rCvP 0.5 mg/L, H2O2 0.5 mM
[3] = pH 6, rCvP 0.5 mg/L, H2O2 0.5 mM

Row | Compound | Log CFU/ml (reduction in number of living bacterial cells) [1] [Log CFU/ml] | Log CFU/ml (reduction in number of living bacterial cells) (pH 8, rCvP 1 mg/L, H2O2 1 mM) [Log CFU/ml] | Log CFU/ml (reduction in number of living bacterial cells) [2] [Log CFU/ml] | bactericidal activity [%] | Log CFU/ml (reduction in number of living bacterial cells) [3] [Log CFU/ml]
1 | O=S(=O)(O)CCN1CCN(CCO)CC1 [HEPES] | 0.7 | 0.6 | – | – | –
2 | Tris(hydroxymethyl)amino-methane [Tris(hydroxymethyl)amino-methane (TRIS)] | 0.3 | 0.5 | – | – | –
3 | CC(=O)O [Acetic acid] | – | – | 6.0 | 100 | –
4 | O=S(=O)(O)CCN1CCOCC1 [2-(N-morpholino) ethanesulfonic acid] | – | – | – | – | 0.6
5 | CC(C)(CC(=O)O)CC(=O)O [Dimethylglutaric acid (DMG), Dimethylglutaric acid] | 7.3 | – | – | 100 | 6.7
6 | O=P([O-])(O)O.[K+] [KH2PO4] | 0.3 | 0.4 | – | – | –
7 | O=C(O)CC(O)(CC(=O)O)C(=O)O [Citric acid] | – | – | 6.4 | 100 | –

Reference: US20020137655A1, “Use of haloperoxidase, peroxide and carboxylic acid” (Novozymes A/S, priority 2000, published 2002)
